Data as given in patent publication US11760751B2, “Benzo 2-azaspiro[4.4]nonane compound and use thereof” (HELIOEAST PHARMACEUTICAL CO., LTD., priority 2020, dated 2023).
Counter-ions that a name gives are not always drawn. Like-named read-outs stand apart in the source and are kept apart here.

What was measured:
[1] = molecular target: T1, S1PR1 (Homo sapiens, UniProt P21453); assay: In vitro S1PR1 agonistic activity, U2OS-EDG1 cells, LiveBLAzer-FRET B/G (CCF4-AM); type: cell-based; conditions: for EC50: 20 hours incubation; for Emax: % Effect, read-out: Emax
T1 construct: expressed in transfected cells
T1 sequence (P21453 whole entry): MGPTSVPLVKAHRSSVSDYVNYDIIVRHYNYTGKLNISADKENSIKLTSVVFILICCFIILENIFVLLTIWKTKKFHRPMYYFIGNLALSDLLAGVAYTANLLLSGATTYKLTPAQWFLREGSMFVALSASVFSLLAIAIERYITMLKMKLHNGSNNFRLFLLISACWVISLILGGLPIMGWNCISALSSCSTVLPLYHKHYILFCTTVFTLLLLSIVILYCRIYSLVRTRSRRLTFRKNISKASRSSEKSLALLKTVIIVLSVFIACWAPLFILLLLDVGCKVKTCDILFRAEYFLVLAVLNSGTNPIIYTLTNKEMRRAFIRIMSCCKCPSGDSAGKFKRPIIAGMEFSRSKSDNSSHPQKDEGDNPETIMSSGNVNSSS
Procedure: Test Embodiment 2: In Vitro Evaluation of the Agonistic Activity of the Compounds of the Present Disclosure on S1PR1
(§1) Experimental objective: to detect the agonistic activity of compounds on S1PR1
I. Cell Treatment • 1. The cells U2OS-EDG1 (batch number: Invitrogen-K1520) were taken out from a liquid nitrogen tank and quickly thawed in a 37° C. water bath; • 2. the cell suspension was aspirated into a 15 mL centrifuge tube, resuspended in 5 mL of pre-warmed culture medium, and centrifuged at 1000 rpm for 5 min; • 3. the supernatant was discarded, 10 mL of culture medium was resuspended, transferred to a T75 culture flask, and cultured in a 37° C., 5% CO2 incubator.
II. Agonist Assay • 1. Compounds were diluted to working concentrations, and the compounds were 3-fold diluted by Echo 555 (manufacturer: Labcyte) to 10 concentrations, and then 200 nL of each concentration were transferred to cell plates, and centrifuged at 1000 rpm for 15 seconds; • 2. the culture medium in the culture flask was aspirated, and 4 mL of Dulbecco's Phosphate Buffered Saline (DPBS, supplier: Coring, catalog number: 21-031-CVR, batch number: 03318006) was added thereto to wash off the residual serum, and 2 mL of trypsin was added thereto, and incubated in a 37° C. incubator for 2 minutes to digest the cells, and then 10 mL of seed plate culture medium was added to resuspend the cells, and 0.6 mL of the cell suspension was taken out for counting; • 3. the cell density was adjusted with the seed plate culture medium to 1.88E+05 cells/mL, 40 μL was seeded per well (7500\well), and 40 μL of FreeStyle™ Expression culture medium was added around the cell plate, left to stand for 15 minutes at room temperature, and incubated at 37° C. with 5% CO2 for 20 hours.
III. Signal Detection • 1. LiveBLAzer™-FRET B/G Substrate (CCF4-AM) detection reagent was configured according to the instructions; • 2. 8 μL of 6×Substrate Mixture was added to each well of the cell plate, centrifuged at 1000 rpm for 15 seconds, attached with a membrane, incubated at 23° C. for 2 hours, and detected by Envision […].
IV. Data Analysis • 1. The original data was converted into % Effect by using the equation, and the value of EC50 could be obtained by curve fitting with four parameters [obtained in the “log(agonist) vs. response—Variable slope” mode in GraphPad Prism]; • 2. calculation formula: Ratio=(460 nm−blank)/(535 nm−blank) % Effect=(SampleRatio−Ave LCRatio)/(Ave HCRatio−Ave LCRatio)*100%

[2] = Pharmacokinetic evaluation in SD rats at different oral doses; type: in vivo, Sprague Dawley rats; conditions: for Cmax: read-out: Peak concentration Cmax; for AUC(0-t): read-out: Area under the drug-time curve AUC0-last PO; for Tmax: read-out: Peak time Tmax
Procedure: Test Embodiment 5: Pharmacokinetic Evaluation of Compounds in Rats at Different Doses
Experimental objective: to test the pharmacokinetics of the compounds in SD rats at different doses
Sprague Dawley rats (male, 200-300 g, 7-9 weeks old, Shanghai SLAC)
A standard protocol was used to test the pharmacokinetic characteristics of the compounds in SD rats after oral administration. In the experiment, the candidate compound was prepared into a clear solution, and administrated to rats by single oral administration. The vehicle for compound 1 was DMSO: 10% hydroxypropyl β-cyclodextrin aqueous solution=5:95. The vehicle for compounds 1A and 1B was 0.5% carboxymethyl cellulose +0.2% Tween 80. Whole blood samples of compounds 1, 1A and 1B within 48 hours were collected, centrifuged at 3000 g for 15 minutes, and the supernatant was separated to obtain plasma samples. 4-fold volume of acetonitrile solution containing internal standard was added thereto to precipitate protein. The mixture was centrifuged, and the supernatant was taken, and an equal volume of water was added thereto. Then the mixture was centrifuged and the supernatant was taken for injection. The blood drug concentration was quantitatively analyzed by LC-MS/MS analysis method, and pharmacokinetic parameters, such as peak concentration, peak time, half-life, area under the drug-time curve, were calculated.

[3] = molecular target: T1, S1PR1; assay: In vitro S1PR1 agonistic activity, PathHunter cell line, chemiluminescent detection; type: cell-based; conditions: for EC50: 90-180 min at 37° C.; for Emax: % activity vs maximum control ligand
Procedure: Test Embodiment 1: In Vitro Evaluation of the Agonistic Activity of the Compounds of the Present Disclosure on S1PR1
as §1
I. Cell Treatment • 1. A PathHunter cell line was thawed according to standard procedures; • 2. the cells were inoculated in a 20 μL 384-well microplate and incubated at 37° C. for appropriate time.
II. Agonist • 1. For agonist determination, cells were incubated with samples to be tested to induce a reaction; • 2. a storage solution to be tested was 5-fold diluted into a buffer; • 3. 5 μL of the 5-fold dilution was added to the cells and incubated at 37° C. for 90-180 minutes. The vehicle concentration was 1%.
III. Signal Detection • 1. 12.5 μL or 15 μL of PathHunter detection reagent at a volume ratio of 50% was added at a time, and then incubated at room temperature for 1 hour to generate a detection signal; • 2. the microplate was read with a PerkinElmer Envision™ instrument for chemiluminescent signal detection.
IV. Data Analysis • 1. Activity analysis of the compound was carried out by using CBIS data analysis kit (ChemInnovation, CAA); • 2. calculation formula: % activity=100%×(average test sample RLU−average vehicle RLU)/(average maximum control ligand−average vehicle RLU)

[4] = Pharmacokinetic evaluation in SD rats (intravenous and oral); type: in vivo; conditions: male, Sprague-Dawley, plasma, SD rat; for Cmax: read-out: Peak concentration Cmax; for bioavailability: read-out: Bioavailability F; for clearance: read-out: Clearance rate CL; for Vd: read-out: Tissue distribution Vdss; for AUC(0-t): read-out: Area under the drug-time curve AUC0-last PO; for half-life: read-out: Half-life T1/2 (PO) (converted)
Procedure: Test Embodiment 3: Pharmacokinetic Evaluation of Compound in Rats
Experimental objective: to test the pharmacokinetics of the compound in SD rats
Sprague Dawley rat (male, 200-300 g, 7-9 weeks old, Shanghai SLAC)
(§2) A standard protocol was used to test the pharmacokinetic characteristics of rodents after intravenous injection and oral administration of the compound. In the experiment, the candidate compound was prepared into a clear solution, and administrated to rats by single intravenous injection and oral administration. The vehicle for intravenous injection was a 5:95 DMSO and 10% hydroxypropyl cyclodextrin aqueous solution, and the vehicle for oral administration was a 0.5% w/v methylcellulose and 0.2% w/v tween 80 aqueous solution. Whole blood samples within 24 hours were collected, centrifuged at 3000 g for 15 minutes, and the supernatant was separated to obtain plasma samples. 4-fold volume of acetonitrile solution containing internal standard was added thereto to precipitate protein. The mixture was centrifuged, and the supernatant was taken, and an equal volume of water was added thereto. Then the mixture was centrifuged and the supernatant was taken for injection. The blood drug concentration was quantitatively analyzed by LC-MS/MS analysis method, and pharmacokinetic parameters, such as peak concentration, clearance rate, half-life, area under the drug-time curve and bioavailability, were calculated.

[5] = Pharmacokinetic evaluation in CD-1 mice (intravenous and oral); type: in vivo; conditions: male, mouse, plasma; for Cmax / bioavailability: intravenous 0.5 mg/kg; for Cmax: oral 2.0 mg/kg (route of Cmax not stated), read-out: Peak concentration Cmax; for bioavailability: oral 2.0 mg/kg, read-out: Bioavailability F; for clearance / Vd: intravenous injection 0.5 mg/kg (oral 2.0 mg/kg); for clearance: read-out: Clearance rate CL; for Vd: read-out: Tissue distribution Vdss; for AUC(0-t) / half-life: oral administration 2.0 mg/kg; for AUC(0-t): read-out: Area under the drug-time curve AUC0-last PO; for half-life: read-out: Half-life T1/2 (PO) (converted)
Procedure: Test Embodiment 4: Pharmacokinetic Evaluation of Compound in Mice
Experimental objective: to test the pharmacokinetics of the compound in CD-1 mice
CD-1 mice (male, 20-40 g, 6-10 weeks old, Shanghai BK)
as §2, with “The standard” for “A standard”, “clear solution or a suspension,” for “clear solution,”, “to two mice” for “to rats”, “hydroxypropyl β-cyclodextrin” for “hydroxypropyl cyclodextrin”, “at 3200” for “at 3000”, “for 10” for “for 15”

[6] = SD rat, single oral administration 5 mg/kg, 5 mg/kg
[7] = intravenous injection 1.0 mg/kg (oral 3.0 mg/kg)
[8] = intravenous injection 0.8 mg/kg (oral 2.4 mg/kg)
[9] = male, Sprague-Dawley, rat, plasma, po, 5 mg/kg, single oral administration 5 mg/kg
[10] = male, Sprague-Dawley, rat, plasma, po, 30 mg/kg, single oral administration 30 mg/kg

CC(C)Oc1ccc(-c2nc(-c3cccc4c3CCC43CCN(CC4(C(=O)O)CC4)C3)no2)cc1C#N (single isomer, unassigned) [Compound 22A]
EC50 [1]: 0.15 nM
Emax [1]: 84.2%
Area under the drug-time curve AUC0-last PO [2, 6]: 26.434 µM·h
Half-life T1/2 (PO) [2, 6]: 5.69 h
Peak time Tmax [2, 6]: 2 h
Cmax [2, 6]: 2500 nM

CC(C)Oc1ccc(-c2nc(-c3cccc4c3CCC43CCN(C(=O)CO)C3)no2)cc1C#N (centres unmarked) [Compound 1]
EC50 [3]: 0.137 nM
Emax [3]: 122%
Cmax ([4]; intravenous 1.0 mg/kg, oral 3.0 mg/kg (route of Cmax not stated)): 1140 ng/mL
bioavailability ([4]; intravenous 1.0 mg/kg, oral 3.0 mg/kg): 83.1%
clearance [4, 7]: 5.97 mL/min/kg
Vd [4, 7]: 2.66 L/kg
AUC(0-t) ([4]; oral administration 3.0 mg/kg): 11.5 µM·h
half-life ([4]; oral administration 3.0 mg/kg): 295 min
Cmax [5]: 615 ng/mL
bioavailability [5]: 70.1%
clearance [5]: 18.2 mL/min/kg
Vd [5]: 2.17 L/kg
AUC(0-t) [5]: 2.74 µM·h
half-life [5]: 217 min

CC(C)Oc1ccc(-c2nc(-c3cccc4c3CCC43CCN(CC4(C(=O)O)CC4)C3)no2)cc1C#N (centres unmarked) [Hydrochloride of compound 22]
EC50 [3]: 0.0754 nM
Emax [3]: 118%
Cmax ([4]; intravenous 0.8 mg/kg, oral 2.4 mg/kg (route of Cmax not stated)): 1770 ng/mL
bioavailability ([4]; intravenous 0.8 mg/kg, oral 2.4 mg/kg): 69.5%
clearance [4, 8]: 3.44 mL/min/kg
Vd [4, 8]: 1.6 L/kg
AUC(0-t) ([4]; oral administration 2.4 mg/kg): 16.3 µM·h
half-life ([4]; oral administration 2.4 mg/kg): 280 min
Cmax [5]: 869 ng/mL
bioavailability [5]: 62.5%
clearance [5]: 5.2 mL/min/kg
Vd [5]: 1.82 L/kg
AUC(0-t) [5]: 7.88 µM·h
half-life [5]: 220 min
AUC(0-t) [2, 9]: 32.3 µM·h
Cmax [2, 9]: 2400 nM
Tmax [2, 9]: 5 h
AUC(0-t) [2, 10]: 256 µM·h
half-life ([2]; male, Sprague-Dawley, rat, plasma, po, 30 mg/kg, single oral administration 30 mg/kg, read-out: Half-life T1/2 (PO) (converted)): 494 min
Cmax [2, 10]: 15300 nM
Tmax [2, 10]: 2 h

CC(C)Oc1ccc(-c2nc(-c3cccc4c3CCC43CCN(CC4(C(=O)O)CC4)C3)no2)cc1C(F)F (centres unmarked) [Hydrochloride of compound 29]
EC50 [1]: 0.0211 nM
Emax [1]: 91.5%

CC(C)Oc1ccc(-c2nc(-c3cccc4c3CCC43CCN(CC4(C(=O)O)CC4)C3)no2)cc1Br (centres unmarked) [Hydrochloride of compound 30]
EC50 [1]: 0.132 nM
Emax [1]: 103%

N#Cc1cc(-c2nc(-c3cccc4c3CCC43CCN(CC4(C(=O)O)CC4)C3)no2)ccc1OC1CCCC1 (centres unmarked) [Hydrochloride of compound 31]
EC50 [1]: 0.456 nM
Emax [1]: 101%

CC(C)Oc1ncc(-c2nc(-c3cccc4c3CCC43CCN(CC4(C(=O)O)CC4)C3)no2)cc1C#N (centres unmarked) [Hydrochloride of compound 32]
EC50 [1]: 1.45 nM
Emax [1]: 95.9%

CC(C)Nc1ncc(-c2nc(-c3cccc4c3CCC43CCN(CC4(C(=O)O)CC4)C3)no2)cc1C#N (centres unmarked) [Hydrochloride of compound 33]
EC50 [1]: 10.2 nM
Emax [1]: 99.9%

N#Cc1cc(-c2nc(-c3cccc4c3CCC43CCN(CC4(C(=O)O)CC4)C3)no2)ccc1OC(F)F (centres unmarked) [Hydrochloride of compound 34]
EC50 [1]: 6.07 nM
Emax [1]: 94.9%
